What all share (type): biochemical
In experiment [1] the target is T1, human plasmin (Homo sapiens, UniProt P00747). The experiment can be described thus: Antiplasmin activity: inhibition of S-2251 decomposition. To be noted: Table 2; substrate S-2251, pH 7.4, 37°C; read-out: Plasmin S-2251 (concentration I₅₀). The method, then:
(ii) Determination of inhibition activity on S-225l decomposition
An inhibitor sample is dissolved in a 0.05 M Tris-hydrochloric acid buffer solution (pH = 7.4) to bring the total volume to 400 µl. To this solution, 50 µl of a 3 mM S-225l solution is added and the mixture is incubated at a temperature of 37°C for 5 minutes in a constant temperature bath. Then 50 µl of a 0.2 casein unit/ml human plasmin is added and the mixture is incubated at a temperature of 37°C for 4 minutes. Thereafter, the reaction is stopped by adding 50 µl of 50% acetic acid.
Thus, the concentration I₅₀ (µmol) of the inhibitor sample, at which the absorbance is one half (i.e., l/2) of that obtained in the absence of the inhibitor, is determined.

Experiment [2] has as its target T1, human plasmin. The experiment can be described thus: Antiplasmin activity: inhibition of fibrin decomposition. To be noted: Table 2; concentration at which fibrin dissolution time is extended twice, pH 7.4, 37°C; read-out: Plasmin Fibrin (concentration I₅₀). The method, then: (i) Determination of inhibition activity on fibrin decomposition
An inhibitor sample is dissolved in a 0.l8 M borate-physiological salt buffer solution (pH = 7.4) to bring the total volume to 600 µl. To this buffer solution, 200 µl of a 0.2% bovine fibrinogen, l00 µl of a 0.3 casein unit/ml human plasmin solution, and l00 µl of a 50 unit/ml bovine thrombin solution, all dissolved in the above-mentioned buffer, are added at a temperature of 37°C in a constant temperature bath. The dissolution time of the fibrin mass formed above is then determined.

Experiment [3] concerns the target T2, bovine thrombin (Bos taurus, UniProt P00735). Kind of experiment: Antithrombin activity: inhibition of S-2238 decomposition. On the procedure:
(ii) Determination of inhibition activity on S-2238 decomposition
An inhibitor sample is dissolved in a 0.05 M Tris-hydrochloric acid buffer solution (pH = 8.3) to bring the a total volume to 400 µl. To this solution, 50 µl of a 0.2 mM S-2238 solution is added and the mixture is incubated at a temperature of 37°C for 5 minutes in a constant temperature bath. Then 50 µl of a 0.2 unit/ml bovine thrombin solution is added thereto and the absorbance, at 405 nm, of the p-nitroaniline formed per minute is determined at a temperature of 37°C by using the so-called initial velocity method. Thus, the concentration I₅₀ (µmol) of the inhibitor sample, at which the absorbance is one half (i.e., l/2) of that obtained in the absence of the inhibitor sample, is determined.

Experiment [4] deals with T2, bovine thrombin. Kind of experiment: Antithrombin activity: inhibition of fibrin formation from fibrinogen. The method, then:
(i) Determination of inhibition activity against fibrin formation
An inhibitor sample is dissolved in a 0.l8 M borate-physiological salt buffer solution (pH = 7.4) to bring the total volume to 500 µl. To this solution, 400 µl of a 0.2% bovine fibrinogen solution and l00 µl of a 4 unit/ml bovine thrombin solution are added at a temperature of 37°C in a constant temperature bath. Thus, a coagulation time is determined. The inhibitor concentration I₅₀ (µmol), at which the coagulation time obtained in the absence of the inhibitor is extended twice, is determined.

For another experiment, the target named is human plasma kallikrein (Homo sapiens, UniProt P03952). Kind of experiment: Anti-plasma kallikrein activity: inhibition of S-2302 decomposition. To be noted: Table 2; substrate S-2302, pH 7.8, 37°C; read-out: Plasma Kallikrein S-2302 (concentration I₅₀). The method, then:
An inhibitor sample is dissolved in a 0.05 M Tris-hydrochloric acid buffer solution (pH = 7.8) to bring the total volume to 400 µl. […] Then, 50 µl of a 0.l2 unit/ml human plasma kallikrein is added and the mixture is incubated at a temperature of 37°C for 5 minutes. Thereafter, 50 µl of 50% acetic acid is added to terminate the reaction. […] Thus, the concentration I₅₀ (µmol) of the inhibitor sample, at which the absorbance is one half (i.e., l/2) of that obtained in the absence of the inhibitor sample, is determined.

A further experiment concerns the target human urokinase (Homo sapiens, UniProt P00749). The experiment can be described thus: Antiurokinase activity: inhibition of S-2444 decomposition. To be noted: Table 2; substrate S-2444, pH 8.8, 37°C; read-out: Urokinase S-2444 (concentration I₅₀). On the procedure:
Determination of inhibition activity for S-2444 decomposition
An inhibitor sample is dissolved in a 0.05 M Tris-hydrochloric acid buffer solution (pH = 8.8) to bring the total volume to 400 µl. To this solution, 50 µl of a l mM S-2444 solution is added and the mixture is incubated at a temperature of 37°C for 5 minutes in a constant temperature bath. Then 50 µl of a 500 unit/ml human urokinase is added and the mixture is incubated at a temperature of 37°C for 5 minutes. Thereafter, 50 µl of 50% acetic acid is added to terminate the reaction. The absorbance of the p-nitroaniline formed in the reaction mixture is measured at 405 nm. Thus, the concentration I₅₀ (µmol) of the inhibitor sample, at which the absorbance is one half (i.e., l/2) of that obtained in the absence of the inhibitor sample, is determined.

For a further experiment, the target named is T3, bovine trypsin (Bos taurus, UniProt P00760).
T3 sequence (P00760 24-246): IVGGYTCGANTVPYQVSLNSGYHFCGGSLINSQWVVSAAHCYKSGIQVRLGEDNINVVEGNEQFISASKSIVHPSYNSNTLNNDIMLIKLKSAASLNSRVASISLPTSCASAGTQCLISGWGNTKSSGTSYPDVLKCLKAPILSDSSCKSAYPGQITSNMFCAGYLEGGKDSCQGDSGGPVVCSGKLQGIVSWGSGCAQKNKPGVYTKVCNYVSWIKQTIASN
The experiment can be described thus: Antitrypsin activity: inhibition of S-2238 decomposition. The settings on record: Table 2; substrate S-2238, pH 8.1, 37°C; read-out: Trypsin S-2238 (concentration I₅₀). The method, then:
Determination of inhibition activity against S-2238 decomposition An inhibitor sample is dissolved in a 0.05 M Tris-imidazole buffer solution (pH = 8.l) and l25 µl of a l mM S-2238 solution is added to bring the total volume to l.20 ml. The mixture is incubated at a temperature of 37°C for 5 minutes in a constant temperature bath. To this mixture, 0.05 ml of bovine trypsin is added and the absorbance, at 405 nm, of the p-nitroaniline formed per minute is determined at a temperature of 37°C by using the so-called initial velocity method. Thus, the concentration I₅₀ (µmol) of the inhibitor sample, at which the absorbance is one half (i.e., l/2) of that obtained in the absence of the inhibitor sample, is determined.

The structures appear in SMILES notation.

In EP0298135A1, “Phenylalanine derivative and proteinase inhibitor” (Okamoto, Shosuke, priority 1987, dated 1989) one finds IC50 data, which are given here for eight compounds.

T1 sequence (P00747 581-810 limits assumed): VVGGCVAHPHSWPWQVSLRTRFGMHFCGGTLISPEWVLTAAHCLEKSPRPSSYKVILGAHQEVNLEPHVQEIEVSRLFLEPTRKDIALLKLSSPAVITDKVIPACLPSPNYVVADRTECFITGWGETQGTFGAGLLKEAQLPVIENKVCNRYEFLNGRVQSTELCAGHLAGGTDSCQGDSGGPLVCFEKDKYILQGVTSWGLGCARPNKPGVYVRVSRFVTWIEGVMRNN
T1 sequence (P00747 97-580 partner limits assumed): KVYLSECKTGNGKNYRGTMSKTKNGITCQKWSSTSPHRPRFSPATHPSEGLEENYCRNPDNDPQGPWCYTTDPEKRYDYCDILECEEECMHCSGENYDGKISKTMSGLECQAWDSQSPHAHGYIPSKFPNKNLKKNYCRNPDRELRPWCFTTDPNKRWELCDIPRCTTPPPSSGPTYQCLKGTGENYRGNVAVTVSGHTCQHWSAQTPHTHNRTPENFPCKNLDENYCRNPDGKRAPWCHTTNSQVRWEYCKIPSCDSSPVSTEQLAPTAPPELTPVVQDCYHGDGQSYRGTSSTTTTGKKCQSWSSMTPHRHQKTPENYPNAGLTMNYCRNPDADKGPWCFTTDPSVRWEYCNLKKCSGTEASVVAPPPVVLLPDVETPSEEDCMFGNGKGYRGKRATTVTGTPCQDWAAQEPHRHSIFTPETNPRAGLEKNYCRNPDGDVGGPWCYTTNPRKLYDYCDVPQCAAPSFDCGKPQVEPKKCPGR
Sequence of human plasma kallikrein (P03952 391-638 limits assumed): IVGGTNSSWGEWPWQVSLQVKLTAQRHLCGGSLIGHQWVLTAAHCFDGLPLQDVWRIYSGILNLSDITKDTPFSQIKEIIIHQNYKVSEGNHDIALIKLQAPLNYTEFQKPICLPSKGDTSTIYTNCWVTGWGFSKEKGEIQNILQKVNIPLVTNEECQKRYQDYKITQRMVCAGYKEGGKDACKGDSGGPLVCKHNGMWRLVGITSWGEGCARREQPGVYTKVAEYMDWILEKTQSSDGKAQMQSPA
Sequence of human plasma kallikrein (P03952 20-390 partner limits assumed): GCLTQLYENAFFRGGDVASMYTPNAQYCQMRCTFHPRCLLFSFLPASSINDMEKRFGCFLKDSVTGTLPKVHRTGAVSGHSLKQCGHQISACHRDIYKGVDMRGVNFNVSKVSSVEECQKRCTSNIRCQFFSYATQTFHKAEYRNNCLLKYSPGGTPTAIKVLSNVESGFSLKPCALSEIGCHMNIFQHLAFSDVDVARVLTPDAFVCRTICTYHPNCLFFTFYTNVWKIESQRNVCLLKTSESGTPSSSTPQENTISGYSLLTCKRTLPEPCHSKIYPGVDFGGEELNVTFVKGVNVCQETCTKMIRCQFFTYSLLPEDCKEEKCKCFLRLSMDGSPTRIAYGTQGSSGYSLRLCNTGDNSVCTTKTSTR

Regarding `CCOC(=O)CC(O)CNC(=O)[C@H](Cc1ccccc1)NC(=O)CCCCCN` (stereo partly drawn) [compound 5], the IC50 on human plasmin [1], at human plasmin [2], at bovine thrombin [3], against bovine thrombin [4], at human plasma kallikrein and at human urokinase was greater than 500 µM in each case.
On to `COc1ccc(NC(=O)[C@H](Cc2ccccc2)NC(=O)c2ccc(NC(=N)N)cc2)cn1` [compound 18], for which the IC50 was greater than 1000 µM against bovine thrombin [3]; greater than 1000 µM at bovine thrombin [4]; 35 µM at bovine trypsin; 12 µM on human plasma kallikrein; 630 µM on human urokinase.
For `CC(=O)c1ccc(NC(=O)[C@H](Cc2ccccc2)NC(=O)c2ccc(NC(=N)N)cc2)cc1` [compound 15], the IC50 at human plasmin [1] was greater than 400 µM; on human plasmin [2] it was greater than 200 µM; at bovine thrombin [3], 330 µM; at bovine thrombin [4], greater than 500 µM; on bovine trypsin it was 14 µM; on human plasma kallikrein it was 2.2 µM. The IC50 at human urokinase came to 190 µM.
For the compound `NCCCCC(=O)N[C@@H](Cc1ccccc1)C(=O)Nc1ccc(C(=O)c2ccccc2)cc1` [Compound No. 2, N-(5-aminovaleryl)-L-phenylalanine 4-benzoylanilide], the IC50 is 120 µM on human plasmin [1]; greater than 100 µM at human plasmin [2]; greater than 200 µM on bovine thrombin [3]; greater than 100 µM at bovine thrombin [4]; 75 µM on bovine trypsin.
Take `NCCCCCC(=O)N[C@@H](Cc1ccc(O)cc1)C(=O)Nc1ccc(C(=O)c2ccccc2)cc1` [compound 7]: the IC50 was greater than 100 µM on human plasmin [1]; greater than 180 µM against bovine thrombin [3]; greater than 120 µM against bovine thrombin [4]; greater than 120 µM at human plasma kallikrein; 120 µM at human urokinase.
Turning to `COC(=O)[C@@H]1CCCN1C(=O)[C@H](Cc1ccccc1)NC(=O)c1ccc(NC(=N)N)cc1` [compound 22], the IC50 at human plasmin [1], at human plasmin [2], against bovine thrombin [3], on bovine thrombin [4], on human plasma kallikrein and at human urokinase was greater than 1000 µM in each case.
Turning to `CCOC(=O)CC(O)CNC(=O)[C@H](Cc1ccccc1)NC(=O)CCCCN` (stereo partly drawn) [Compound No. 3], the IC50 on human plasmin [1], on human plasmin [2], against bovine thrombin [3], on bovine thrombin [4] and on human urokinase was greater than 1000 µM in each case.
Take `CC1CCC(NC(=O)[C@H](Cc2ccccc2)NC(=O)c2ccc(NC(=N)N)cc2)CC1C` (stereo partly drawn) [compound 21]: the IC50 on human plasmin [1] is 450 µM; against bovine thrombin [3], 400 µM; at bovine thrombin [4] it was greater than 100 µM; on bovine trypsin, 6 µM; on human plasma kallikrein, 15 µM; on human urokinase, 740 µM.
